Measurements reported in publication PMC13242511, “Disrupting Notch signalling by a small molecule inhibiting dihydroorotate dehydrogenase activity” (Scientific Reports, 2026).
Like-named read-outs stand apart in the source and are kept apart here. One block for each molecule: values may come before it.

Columns and labels:
γ-secretase complex = γ-secretase complex (Homo sapiens, UniProt P49768); assay: APP-C99 counter assay (GSI reporter assay); assay type: cell-based; parameters: AUC APP: scale not given here; conditions: for Hill-slope / curve fit information: 14p APP assay DR; for AUC APP: area under the 14-point dose-response curve, replicates averaged
Description: To this end, we used a previously established reporter gene-based GSI assay (APP-C99) (Fig. 3A), which measures γ-secretase activity through cleavage of amyloid precursor protein (APP), another protein processed by the γ-secretase complex[24]
Plasmids for APP and luciferase are described in[24] and the renilla plasmid described above generated for this project was used to normalize firefly values. 24 h post transfection cells were seeded on compound plates and cells were cultivated for 24 h before luciferase signals were read, as described.
Two-fold concentrations of compounds were diluted in 10 µl cell culture medium and brought to one-fold by seeding 10 µl containing 4000 cells of the respective cell type on each well of a 384-well plate, as described above. Analogous to the previous assays, all plates contained one DMSO and DAPT control column with the Notch reporter cell line (#A1-11) and a DMSO only and Notch inhibitor control plate was read before the measuring the screening plates. In addition, DAPT and DMSO were spotted in a dose response fashion, and a minimum of four replicates were read. Dose-responses of compounds were recorded in triplicates for each concentration reading out the dual luciferase reporters, as described above. Dose response assays were read together in one session. To measure compound effects, the different assays dose–response curves were fitted using the log(inhibitor) vs. response – Variable slope (model: Y = Bottom + (Top–Bottom)/(1 + 10^((LogIC50-X)*HillSlope)) equation.
A DMSO plate was read before measuring luciferase activity of compound spotted plates. APP firefly luciferase reporter assays were read with a signal integration time of 0.1 s, instead of 0.5 s used for the Notch reporter to reduce signal overlap between wells. […] The area-under-the-curve (AUC) was calculated on dose–response curves using Graphpad Prism.

Notch signalling = assay: Notch reporter assay (12xCSL firefly luciferase / renilla luciferase, HEK293T Notch1ΔE reporter cell line clone #A1-11); assay type: cell-based; parameters: AUC Notch: scale not given here; conditions: for AUC Notch: area under the 14-point dose-response curve, replicates averaged
Excerpt: To identify novel Notch inhibitors in an unbiased manner, we generated a novel Notch reporter construct, which records the level of Notch signalling immediately downstream of receptor activation rather than further downstream in the signalling cascade, for example at the level of Hes and Hey proteins (Fig. 1B). […] The reporter construct carries piggy-bac sequences at both ends of the promoter-reporter cassette as well as cSH4 insulator elements to reduce transcriptional noise[21] and was transfected into HEK293T cells. To achieve a robust level of Notch receptor activity in the HEK293T reporter cell line and to confine the search for inhibitors to compounds affecting the receptor function and eliminating the need for ligand activation, a truncated ligand-independent version of the Notch1 receptor, mimicking an S2-cleaved Notch1 receptor (Notch1ΔE) and spontaneously activated by S3-cleavage[22] (Fig. 1C) was introduced into the cell line carrying the reporter construct (Fig. 1D). In addition, an HSV-TK-renilla luciferase plasmid was introduced into the cell line as an internal control for normalisation of the reporter expression (Fig. 1D).
A de novo Notch reporter construct, composed of six dimeric CSL binding sites linked to a basic b-globin promoter and followed by a firefly luciferase gene and a PEST degradation domain was synthesised (GeneArt). The construct was stably introduced into HEK293T cells, and zeocin (0.1 mg/ml) or Puromycin (0.05 mg/ml (ThermoFisher, cat #R25001, #A1113803) were used as selection markers. A clonal cell line (clone #A1) with robust renilla expression and enhanced firefly luciferase expression upon transient transfection of Notch1 ICD or Notch1ΔE constructs was selected, and a UB6 promoter-Notch1DE construct was stably introduced into this cell line using Blasticidin (0.1 mg/ml; ThermoFisher, cat #A1113903) as a selection marker. Stable cell lines were generated by serial dilution and only clonal colonies were selected for further evaluation. To measure luciferase reporter activity, cells were washed in cold PBS, detached, and collected in pre-warmed cell culture medium and centrifugated for five min at 200xg. The cell pellet was resuspended in medium, cells were counted, and 4,000 cells were seeded in each well of a white 384 well plate (Corning #3670) in 20 µl medium containing either DMSO or the GSI DAPT (N-[N-(3,5-Difluorophenacetyl)-L-alanyl]-S-phenylglycine t-butyl ester, Sigma-Aldrich, cat #565784-M) and incubated for 24 h. The efficacy of the reporter gene system was determined by monitoring the level of luciferase activation in the absence or presence of different amounts of DAPT in several cell clones. Luciferase activity was assessed using the dual-GLO luciferase detection kit from Promega (cat # E2920), following the manufacturer’s instructions. A minimum of two technical replicates were measured per clone using a SpectraMaxi3 plate reader (Molecular Devices). Reporter activity of different clones and in response to DAPT was assessed by normalising firefly (Notch activity) to renilla luciferase signals. Normalised signals of individual clones cultivated in DMSO were then compared to corresponding signals generated with DAPT-treated cells. The cell clone with the strongest signal to control ratio (DMSO to DAPT) was then selected for further exploration (clone #A1-11).
37,966 compounds were spotted by the compound center at SciLifeLab (https://www.scilifelab.se/) on a total of 120 plates (Greiner #781080) at a fixed concentration of 10 µM and the screening process spanned five consecutive sessions. The layout of each plate contained one column for DMSO and one for DAPT controls to determine the quality and reliability of the data. DAPT controls were spotted at 10 µM and DMSO was spotted in an equimolar volume. In addition, plates spotted with only DMSO were utilized to investigate the impact of plate effects before and after each session. […]

[1] = bottom constrained to Emax of positive control LY-411575
[2] = Homo sapiens, HEK-293T, 14p Notch assay DR, bottom constrained to Emax of positive control DAPT, read-out: approximated IC50
[3] = Homo sapiens, HEK-293T, 14p Notch assay DR, log10 value, bottom constrained to Emax of positive control DAPT, read-out: approximated LogIC50 (converted)

SMILES: Cc1ccccc1CN1CCC2(CC1)OCCc1c2[nH]c2ccc(F)cc12 [CBK040334]
Hill-slope (γ-secretase complex; [1]): 0.00509
curve fit information (γ-secretase complex; [1]): IC50 indeterminate
AUC APP (γ-secretase complex): 704.0
Bottom (Emax) (Notch signalling; 14p Notch assay DR, Emax indicated independent from assay constraints, in % (unit assumed)): ~ 28,93
IC50 (Notch signalling; Homo sapiens, HEK-293T, 14-point dose-response, Fig. 4, read-out: approximated IC50, Notch reporter assay): > 5 µM
IC50 (Notch signalling; [2]): 8.9 µM
IC50 (Notch signalling; [3]): 7.94 µM
AUC Notch (Notch signalling): 607.0

SMILES: O=C(O)c1cccc2cccc(C(=O)N3CCC4(CC3)OCCc3c4[nH]c4ccccc34)c12 [CBK047027]
Hill-slope (γ-secretase complex; [1]): -0.9

SMILES: O=C(O)c1ccccc1C(=O)N1CCC2(CC1)OCCc1c2[nH]c2ccccc12 [CBK046981]
Hill-slope (γ-secretase complex; [1]): -0.0365

SMILES: O=C(O)c1cccc(-c2noc(-c3ccccc3F)n2)c1 [PTC-124, reference compound]
signal reduced by (Notch signalling; luciferase inhibitor controls in three-dose regimen (1.25, 10 and 25 µM), Supplemental Fig. 2G): 83%

Further lines, with some results ahead:

Hill-slope (γ-secretase complex; bottom constrained to Emax of positive control CB-103): 0.344
Hill-slope (γ-secretase complex; [1]): -2.25e-11
curve fit information (γ-secretase complex; [1]): IC50 indeterminate
remaining activity at 10 µM (γ-secretase complex; 24 h, 10µM, APP-C99 counter assay, read-out: 3p-DR in % of DMSO counter): 145%
remaining activity at 25 µM (γ-secretase complex; 24 h, 25µM, APP-C99 counter assay, read-out: 3p-DR in % of DMSO counter): 135%
remaining activity at […] (γ-secretase complex; 24 h, 1,25µM, APP-C99 counter assay, read-out: 3p-DR in % of DMSO counter): 126%
AUC APP (γ-secretase complex): 774.2
IC50 (Notch signalling; Homo sapiens, HEK-293T, 14p Notch assay DR, averaged when replicate measurements were available, read-out: averaged IC50s): 3.2 µM
IC50 (Notch signalling; [2]): 3.5 µM
IC50 (Notch signalling; Homo sapiens, HEK-293T, 14p Notch assay DR, bottom constrained to Emax of positive control RO4929097, read-out: approximated IC50): 3 µM
IC50 (Notch signalling; [3]): 3.16 µM
IC50 (Notch signalling; Homo sapiens, HEK-293T, 14p Notch assay DR, log10 value, bottom constrained to Emax of positive control RO4929097, read-out: approximated LogIC50 (converted)): 3.16 µM
SMILES: Cc1[nH]c2cccc(C(=O)N3CCCCC3CCNC(=O)c3ccccc3)c2c1C (stereo not drawn) [CBK285976]
activity at 10 µM (Notch signalling; Homo sapiens, HEK-293T, 10 µM, primary screen, 24 h, unit from Fig. 2 legend, read-out: Primary screen at 10 µM (Notch reporter signal)): 37.7%
activity at 10 µM (Notch signalling; Homo sapiens, HEK-293T, 10 µM, three-dose confirmation screen, unit from Fig. 2 legend, read-out: Hit confirmation at 10 µM (Notch reporter signal)): 54.9%
activity at 10 µM (Notch signalling; Homo sapiens, HEK-293T, 10µM, 3-point DR confirmation screen, Notch reporter assay, read-out: inhibitor ratio in % of DMSO in 3 point DR): 54.9%
activity at 10 µM (Notch signalling; Homo sapiens, HEK-293T, 10 µM, sheet conf vs counter 10 µM, same values as 3-point DR confirmation screen, read-out: Confirmation screen): 54.9%
activity at 25 µM (Notch signalling; Homo sapiens, HEK-293T, 25µM, 3-point DR confirmation screen, Notch reporter assay, read-out: inhibitor ratio in % of DMSO in 3 point DR): 38.3%
activity at 25 µM (Notch signalling; Homo sapiens, HEK-293T, 25 µM, Notch reporter 3-point dose-confirmation assay, sheet "conf vs counter 25 µM", read-out: Confirmation screen): 38.3%
activity (Notch signalling; Homo sapiens, HEK-293T, 1,25µM, 3-point DR confirmation screen, Notch reporter assay, read-out: inhibitor ratio in % of DMSO in 3 point DR): 100%
AUC Notch (Notch signalling): 532.0

Hill-slope (γ-secretase complex; [1]): 0.0472
SMILES: COc1cc(Nc2nc(-c3ccccc3)cn3ccnc23)cc(OC)c1OC [CBK066345]

Hill-slope (γ-secretase complex; [1]): 0.274
SMILES: CC(c1nc(N)nc(Nc2ccccc2)n1)N1CCC(NC(=O)c2ccccc2)CC1 (stereo not drawn) [CBK233672]

Hill-slope (γ-secretase complex; [1]): 0.0544
SMILES: COc1ccc(-c2cn3ccnc3c(Nc3cc(OC)c(OC)c(OC)c3)n2)cc1OC [CBK066261]

Hill-slope (γ-secretase complex; [1]): -8.4
SMILES: COc1ccc2[nH]c3c(c2c1)CCOC31CCN(C(=O)c2ccccc2C(=O)O)CC1 [CBK047213]

Hill-slope (γ-secretase complex; [1]): 20.5
SMILES: COc1ccc2[nH]c3c(c2c1)CCOC31CCN(C(=O)c2cccc3cccc(C(=O)O)c23)CC1 [CBK047020]
